Values quoted from earlier work in patent US5545620A, “Synthetic fibronectin fragments as inhibitors of retroviral infection” (priority 1994, dated 1996).

System: cell adhesion
Conditions: cited from earlier work

| Substance | promotion of cell adhesion |
| --- | --- |
| FN-6: fibronectin fragment (1961-1985) SEQ ID NO. 6, restricted to isoforms containing the type IIIcs region (DELPQLVTLPHPNLHGPEILDVPST) | promotes cell adhesion by an α4β1 integrin-dependent mechanism |
| KNNQKSEPLIGRKKT [FN-2] | promote cell adhesion |
| YEKPGSPPREWPRPRPGV (YEKPGSPPREVVPRPRPGV) [FN-1] | promote cell adhesion |
